Earlier results, collected in patent US7067586B2, “Methods of making ABA-type block copolymers having a random block of hydrophobic and hydrophilic monomers” (Symyx Technologies, Inc., priority 2000, dated 2006).

Conditions: octanol-water partition coefficient of the monomer; approximate values from web-site estimation program or Hansch et al.

| SMILES | log P |
| --- | --- |
| C=CC(=O)NC(C)(C)C [N-t-butyl acrylamide] | ~1.02 |
| O=C(O)/C=C\C(=O)O [maleic acid] | ~−0.48 |
| C=CC(=O)OCCOC [2-methoxyethylacrylate] | about 0.45 |
| C=CCO [allyl alcohol] | ~0.17 |
| C=Cc1ccccc1 [styrene] | about 2.95 |
| C=C(C)C(=O)OCCO [2-hydroxyethylmethacrylate] | about 0.47 |
| C=C(C)C(=O)O [methacrylic acid] | ~0.93 |
| C=CC(=O)OC(C)(C)C [tert-butylacrylate] | about 2.09 |
| C=C(C)C(=O)OCC(C)C [isobutyl methacrylate] | ~2.66 |
| C=CC(=O)OCCO [2-hydroxyethylacrylate] | about −0.21 |
| C=C(C)C(=O)OC [methyl methacrylate] | ~1.38 |
| C=C(C)C(=O)OC(C)(C)C [t-butyl methacrylate] | ~2.54 |
| C=C(C)C(=O)OCCN(C)C [dimethyl aminoethyl methacrylate] | ~0.97 |
| C=C(C)C(N)=O [methacrylamide] | ~−0.26 |
| C=C(C)C(=O)OCCCC [n-butyl methacrylate] | ~2.36 |
| C=C(CC(=O)O)C(=O)O [itaconic acid] | ~−0.34 |

Same assay, conditions: octanol-water partition coefficient of the monomer; approximate values from web-site estimation program or Hansch et al.; listed as t-butyl acrylate

| SMILES | log P |
| --- | --- |
| C=CC(=O)OC(C)(C)C [tert-butylacrylate] | ~2.09 |
